Assay results published in article PMC5884906, “Single Administration of HBK-15—a Triple 5-HT1A, 5-HT7, and 5-HT3 Receptor Antagonist—Reverses Depressive-Like Behaviors in Mouse Model of Depression Induced by Corticosterone” (Molecular Neurobiology, 2017).
Where “and” joins values, the source holds several entries; their conditions need not be identical. Equal entries are not always repeated.

Legend:
Format in all cases: in vivo
[1] = test system: corticosterone-treated mice; assay: sucrose preference test, chronic administration, corticosterone model; conditions: for effect on corticosterone-induced decrease in sucrose intake: 21 days
Description: The dose and route of administration of corticosterone was based on studies performed by Zhao and colleagues. Thirty minutes before, corticosterone injection mice were given (i.p.) saline, HBK-14 (1.25 or 2.5 mg/kg), HBK-15 (0.625 or 1.25 mg/kg), or fluoxetine (10 mg/kg) (Fig. 1b). Control mice received (i.p.) saline and 30 min later saline containing 0.1% dimethyl sulfoxide (DMSO) and 0.1% Tween-80 (s.c.). The experimental groups consisted of eight randomly selected animals. After the end of the procedure, animals were tested in the sucrose preference test, forced swim test, elevated plus maze test, and spontaneous locomotor activity test. Following behavioral testing, rodents were scarified and their hippocampi collected for biochemical analysis. The sucrose preference test was conducted according to the slightly modified methods described by Liu and colleagues and Filho and colleagues. The test was performed before and after the administration of corticosterone. Briefly, before the proper test, mice were housed singly and given 72 h training to acclimate to the test procedures. In the first 24 h, access ad libitum to two feeding bottles of 1% (w/v) sucrose solution was given to each mouse. After 24 h, one bottle was replaced with tap water for the next 24 h. Then, mice were deprived of water and food for the third 24 h. On the test day, the weight of each bottle (1% sucrose solution and tap water) was recorded. Test animals were then given the bottles of 1% sucrose and water for 24 h. The consumed liquid weight was measured based on the weight of each bottle of fluids after sucrose preference test minus the original starting weight. The percentage of sucrose intake was calculated using the following equation: %Sucrose intake=Sucrose intake/Sucrose intake+water intake⋅100%

[2] = test system: corticosterone-treated mice; assay: elevated plus maze, chronic administration, corticosterone model
Description: The doses and route of administration of the studied compounds were based on our previous experiments. […] Mice were injected with corticosterone (s.c., 20 mg/kg) at random times during the light phase for 21 consecutive days (Fig. 1b). The dose and route of administration of corticosterone was based on studies performed by Zhao and colleagues. Thirty minutes before, corticosterone injection mice were given (i.p.) saline, HBK-14 (1.25 or 2.5 mg/kg), HBK-15 (0.625 or 1.25 mg/kg), or fluoxetine (10 mg/kg) (Fig. 1b). Control mice received (i.p.) saline and 30 min later saline containing 0.1% dimethyl sulfoxide (DMSO) and 0.1% Tween-80 (s.c.). The experimental groups consisted of eight randomly selected animals. After the end of the procedure, animals were tested in the sucrose preference test, forced swim test, elevated plus maze test, and spontaneous locomotor activity test. Following behavioral testing, rodents were scarified and their hippocampi collected for biochemical analysis. The elevated plus maze was performed according to the method previously described. […] Each mouse was individually placed at the central field of the apparatus with the head turned toward one of the closed arms. […] The device was disinfected with 70% ethanol after each mouse. The number of entries to open and closed arms and time spent in the open and closed arms were measured. The experiments were recorded and scored using aLab.io software by a trained observer blind to the treatments.

[3] = test system: corticosterone-treated mice; assay: spontaneous locomotor activity, chronic administration; conditions: 6 min session
Description: The doses and route of administration of the studied compounds were based on our previous experiments. […] Mice were injected with corticosterone (s.c., 20 mg/kg) at random times during the light phase for 21 consecutive days (Fig. 1b). The dose and route of administration of corticosterone was based on studies performed by Zhao and colleagues. Thirty minutes before, corticosterone injection mice were given (i.p.) saline, HBK-14 (1.25 or 2.5 mg/kg), HBK-15 (0.625 or 1.25 mg/kg), or fluoxetine (10 mg/kg) (Fig. 1b). Control mice received (i.p.) saline and 30 min later saline containing 0.1% dimethyl sulfoxide (DMSO) and 0.1% Tween-80 (s.c.). The experimental groups consisted of eight randomly selected animals. After the end of the procedure, animals were tested in the sucrose preference test, forced swim test, elevated plus maze test, and spontaneous locomotor activity test. Following behavioral testing, rodents were scarified and their hippocampi collected for biochemical analysis. The locomotor activity was performed as previously described. Locomotor activity was recorded individually for each mouse using activity cages made of clear Perspex (40 cm × 40 cm × 31 cm, Activity Cage 7441, Ugo Basile, Italy). The cages were supplied with I.R. horizontal beam emitters connected to a counter for the recording of light-beam interruptions. Each mouse was placed in a cage for a 30-min habituation period. […] The cages were disinfected with 70% ethanol after each mouse.

[4] = test system: corticosterone-treated mice; assay: spontaneous locomotor activity, single administration; conditions: 4 min
Description: Mice were injected with corticosterone (s.c., 20 mg/kg) at random times during the light phase for consecutive 21 days (Fig. 1c). The dose and route of administration of corticosterone were based on studies performed by Zhao and colleagues. […] Control mice received (i.p.) saline. The experimental groups consisted of eight randomly selected animals. We chose the dose of HBK-15 that was active in the chronic experiments (i.e., 1.25 mg/kg). The dose of ketamine was based on the studies performed by Pazini and colleagues. Animals were tested in the forced swim test and spontaneous locomotor activity test. After behavioral testing, mice were scarified and their hippocampi collected for biochemical analysis.
The locomotor activity was performed as previously described. Locomotor activity was recorded individually for each mouse using activity cages made of clear Perspex (40 cm × 40 cm × 31 cm, Activity Cage 7441, Ugo Basile, Italy). The cages were supplied with I.R. horizontal beam emitters connected to a counter for the recording of light-beam interruptions. Each mouse was placed in a cage for a 30-min habituation period. After that time, the number of crossings of photobeams was measured for 6 min (chronic studies) or for 4 min (acute experiments; i.e., the time equal to the observation period in the forced swim test). The cages were disinfected with 70% ethanol after each mouse.

[5] = 1.25 mg/kg i.p. 21 days + corticosterone
[6] = corticosterone 20 mg/kg s.c. 21 days + saline

COc1ccccc1N1CCN(CCOCCOc2c(C)cccc2Cl)CC1.Cl [HBK-15, 1-[(2-chloro-6-methylphenoxy)ethoxyethyl]-4-(2-methoxyphenyl)piperazine hydrochloride]
effect on corticosterone-induced decrease in sucrose intake ([1]; 1.25 mg/kg i.p.): prevented the decrease in sucrose intake
effect on corticosterone-induced decrease in number of open arm entries ([2]; 2.5 mg/kg i.p., 21 days): prevented the decreases
effect on corticosterone-induced decrease in time spent in the open arms ([2]; 2.5 mg/kg i.p., 21 days): prevented the decreases in the time spent in the open arms
Number of crossings ± S.E.M ([3]; 0.625 mg/kg i.p. 21 days + corticosterone): 466.1 ± 84.8
Number of crossings ± S.E.M [3, 5]: 478.9 ± 78.8
Number of crossings ± S.E.M ([4]; single 1.25 mg/kg i.p. in corticosterone-treated mice): 245.3 ± 22.5

CNCCC(Oc1ccc(C(F)(F)F)cc1)c1ccccc1 (stereo not shown) [fluoxetine, reference compound]
effect on corticosterone-induced decrease in sucrose intake ([1]; 10 mg/kg i.p.): prevented the decrease in sucrose intake
effect on corticosterone-induced decrease in number of open arm entries ([2]; 10 mg/kg i.p., 21 days): prevented the decreases
effect on corticosterone-induced decrease in time spent in the open arms ([2]; 10 mg/kg i.p., 21 days): prevented the decreases in the time spent in the open arms
Number of crossings ± S.E.M ([3]; 10 mg/kg i.p. 21 days + corticosterone): 510.3 ± 54.0 and 423.3 ± 47.3
Number of crossings ± S.E.M ([4]; single i.p. in corticosterone-treated mice): 231.9 ± 21.9

C[C@]12C[C@H](O)[C@H]3[C@@H](CCC4=CC(=O)CC[C@@]43C)[C@@H]1CC[C@@H]2C(=O)CO [corticosterone]
decrease in percentage intake of sucrose solution vs control [1, 6]: 17% and 21%
decrease in open arm entries vs control [2, 6]: 56% and 48%
decrease in time spent in the open arms vs control [2, 6]: 48%
Number of crossings ± S.E.M [3, 6]: 343.4 ± 27.3 and 394.5 ± 67.1
Number of crossings ± S.E.M [4, 6]: 230.7 ± 15.8

COc1ccccc1N1CCN(CCOCCOc2c(C)cccc2C)CC1.Cl [HBK-14, 1-[(2,6-Dimethylphenoxy)ethoxyethyl]-4-(2-methoxyphenyl)piperazine hydrochloride]
effect on corticosterone-induced decrease in sucrose intake ([1]; 1.25 or 2.5 mg/kg i.p.): inactive
effect on corticosterone-induced decrease in number of open arm entries ([2]; 2.5 mg/kg i.p., 21 days): prevented the decreases
effect on corticosterone-induced decrease in time spent in the open arms ([2]; 2.5 mg/kg i.p., 21 days): prevented the decreases in the time spent in the open arms
number of open arms entries compared with fluoxetine ([2]; 2.5 mg/kg i.p., 21 days, vs fluoxetine 10 mg/kg): significantly increased
Number of crossings ± S.E.M [3, 5]: 406.3 ± 64.2
Number of crossings ± S.E.M ([3]; 2.5 mg/kg i.p. 21 days + corticosterone): 400.8 ± 55.8
